US20250034170A1, “SMALL MOLECULE MODULATORS OF GLUCOCEREBROSIDASE ACTIVITY AND USES THEREOF” (Vanqua Bio, Inc., priority 2021, published 2025)

Target: T1, GCase (Homo sapiens, UniProt P04062)
T1 construct: endogenous in cells; host or cells: HeLa cells
T1 sequence (P04062 40-536): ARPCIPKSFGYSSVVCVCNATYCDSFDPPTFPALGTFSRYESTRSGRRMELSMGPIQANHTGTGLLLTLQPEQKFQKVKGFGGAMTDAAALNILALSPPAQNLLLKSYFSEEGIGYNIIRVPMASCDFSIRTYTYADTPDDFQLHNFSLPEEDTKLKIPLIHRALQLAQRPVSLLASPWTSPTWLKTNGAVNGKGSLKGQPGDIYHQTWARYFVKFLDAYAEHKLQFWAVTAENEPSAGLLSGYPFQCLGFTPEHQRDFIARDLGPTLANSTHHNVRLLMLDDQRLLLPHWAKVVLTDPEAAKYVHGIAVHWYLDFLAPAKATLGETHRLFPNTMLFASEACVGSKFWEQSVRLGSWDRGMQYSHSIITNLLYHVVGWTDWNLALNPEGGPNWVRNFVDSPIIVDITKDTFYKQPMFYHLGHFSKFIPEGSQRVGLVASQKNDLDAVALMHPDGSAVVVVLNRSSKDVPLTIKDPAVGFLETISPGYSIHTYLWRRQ
Assay: activation of GCase in a live cell PFB assay in HELA cells
Assay type: cell-based
Conditions: activation of GCase, EC50 ranges
Experimental: Exemplary compounds were evaluated for activation of GCase in a live cell PFB assay in HELA cells (essentially as described in Ysselstein et al., “LRRK2 kinase activity regulates lysosomal glucocerebrosidase in neurons derived from Parkinson's disease patients” Nature Communications (2019) 10:5570). […] EC50 ranges: A: <10 μM; B: >10-50 μM; C: >50-100 μM; D: >100 μM.

| SMILES | EC50 [µM] |
| --- | --- |
| FC(F)Cn1ncc2ncc(N3CC4(CCN(c5ccc(C(F)(F)F)nc5)CC4)C3)nc21 [Compound 127, 2-[1-(2,2-difluoroethyl)-1H-pyrazolo[3,4-b]pyrazin-6-yl]-7-[6-(trifluoromethyl)pyridin-3-yl]-2,7-diazaspiro[3.5]nonane] | < 10 |
| FC(F)Cn1ncc2ncc(N3CC4(CCN(c5cccnc5C(F)(F)F)CC4)C3)nc21 [Compound 129, 2-[1-(2,2-difluoroethyl)-1H-pyrazolo[3,4-b]pyrazin-6-yl]-7-[2-(trifluoromethyl)pyridin-3-yl]-2,7-diazaspiro[3.5]nonane] | 10 to 50 |
| FC(F)Cn1ncc2ncc(NC3CCC4(CC3)CN(c3cccc(C(F)(F)F)n3)C4)nc21 [Compound 130, N-[1-(2,2-difluoroethyl)-1H-pyrazolo[3,4-b]pyrazin-6-yl]-2-[6-(trifluoromethyl)pyridin-2-yl]-2-azaspiro[3.5]nonan-7-amine] | 10 to 50 |
| FC(F)Cn1ncc2ncc(N3CC4(CC(COc5cccc(C(F)(F)F)n5)C4)C3)nc21 [Compound 134, 2-[1-(2,2-difluoroethyl)-1H-pyrazolo[3,4-b]pyrazin-6-yl]-6-({[6-(trifluoromethyl)pyridin-2-yl]oxy}methyl)-2-azaspiro[3.3]heptane] | < 10 |
| FC(F)(F)Cn1ncc2ncc(N3CC4(CCCN(c5ccc(C(F)(F)F)nc5)C4)C3)nc21 [Compound 136, 2-[1-(2,2,2-trifluoroethyl)-1H-pyrazolo[3,4-b]pyrazin-6-yl]-6-[6-(trifluoromethyl)pyridin-3-yl]-2,6-diazaspiro[3.5]nonane] | 10 to 50 |
| Cc1nn(CC(F)F)c2nc(N3CC4(CCCN(c5ccc(C(F)(F)F)nc5)C4)C3)cnc12 [Compound 137, 2-[1-(2,2-difluoroethyl)-3-methyl-1H-pyrazolo[3,4-b]pyrazin-6-yl]-6-[6-(trifluoromethyl)pyridin-3-yl]-2,6-diazaspiro[3.5]nonane] | > 100 |
| FC(F)(F)c1ccc(N2CCCC3(C2)CN(c2cncc(-c4nncs4)n2)C3)cn1 [Compound 138, 2-[6-(1,3,4-thiadiazol-2-yl)pyrazin-2-yl]-6-[6-(trifluoromethyl)pyridin-3-yl]-2,6-diazaspiro[3.5]nonane] | 10 to 50 |
| O=C1N(c2cc(C(F)(F)F)ccn2)CCC12CCN(c1cnc3cnn(CC(F)(F)F)c3n1)CC2 [Compound 142, 8-[1-(2,2,2-trifluoroethyl)-1H-pyrazolo[3,4-b]pyrazin-6-yl]-2-[4-(trifluoromethyl)pyridin-2-yl]-2,8-diazaspiro[4.5]decan-1-one] | < 10 |
| FC(F)Cn1ncc2ncc(N3CCC4(CCN(c5cccc(C(F)(F)F)n5)C4)CC3)nc21 [Compound 143, 8-[1-(2,2-difluoroethyl)-1H-pyrazolo[3,4-b]pyrazin-6-yl]-2-[6-(trifluoromethyl)pyridin-2-yl]-2,8-diazaspiro[4.5]decane] | < 10 |
| FC(F)Cn1ncc2ncc(N3CCC4(CCN(c5ccc(C(F)(F)F)cn5)C4)CC3)nc21 [Compound 144, 8-[1-(2,2-difluoroethyl)-1H-pyrazolo[3,4-b]pyrazin-6-yl]-2-[5-(trifluoromethyl)pyridin-2-yl]-2,8-diazaspiro[4.5]decane] | < 10 |
| FC(F)Cn1ncc2ncc(N3CCC4(CC3)CCN(c3ncccc3C(F)(F)F)C4)nc21 [Compound 145, 8-[1-(2,2-difluoroethyl)-1H-pyrazolo[3,4-b]pyrazin-6-yl]-2-[3-(trifluoromethyl)pyridin-2-yl]-2,8-diazaspiro[4.5]decane] | 10 to 50 |
| FC(F)Cn1ncc2ncc(N3CCC4(CCN(c5cncc(C(F)(F)F)c5)C4)CC3)nc21 [Compound 148, 8-[1-(2,2-difluoroethyl)-1H-pyrazolo[3,4-b]pyrazin-6-yl]-2-[5-(trifluoromethyl)pyridin-3-yl]-2,8-diazaspiro[4.5]decane] | < 10 |
| FC(F)Cn1ncc2ncc(N3CCC4(CCN(c5cccc(C(F)(F)F)n5)CC4)C3)nc21 [Compound 149, 2-[1-(2,2-difluoroethyl)-1H-pyrazolo[3,4-b]pyrazin-6-yl]-8-[6-(trifluoromethyl)pyridin-2-yl]-2,8-diazaspiro[4.5]decane] | < 10 |
| FC(F)Cn1ncc2ncc(N3CCC4(CCN(c5ccc(C(F)(F)F)cn5)CC4)C3)nc21 [Compound 150, 2-[1-(2,2-difluoroethyl)-1H-pyrazolo[3,4-b]pyrazin-6-yl]-8-[5-(trifluoromethyl)pyridin-2-yl]-2,8-diazaspiro[4.5]decane] | 10 to 50 |
| FC(F)Cn1ncc2ncc(N3CCC4(CCN(c5ncccc5C(F)(F)F)CC4)C3)nc21 [Compound 151, 2-[1-(2,2-difluoroethyl)-1H-pyrazolo[3,4-b]pyrazin-6-yl]-8-[3-(trifluoromethyl)pyridin-2-yl]-2,8-diazaspiro[4.5]decane] | 10 to 50 |

Further lines, results first:

| EC50 [µM] | SMILES |
| --- | --- |
| < 10 | FC(F)Cn1ncc2ncc(N3CC4(CCN(c5cncc(C(F)(F)F)c5)CC4)C3)nc21 [Compound 126, 2-[1-(2,2-difluoroethyl)-1H-pyrazolo[3,4-b]pyrazin-6-yl]-7-[5-(trifluoromethyl)pyridin-3-yl]-2,7-diazaspiro[3.5]nonane] |
| 10 to 50 | FC(F)Cn1ncc2ncc(N3CC4(CCN(c5cnccc5C(F)(F)F)CC4)C3)nc21 [Compound 128, 2-[1-(2,2-difluoroethyl)-1H-pyrazolo[3,4-b]pyrazin-6-yl]-7-[4-(trifluoromethyl)pyridin-3-yl]-2,7-diazaspiro[3.5]nonane] |
| < 10 | FC(F)Cn1ncc2ncc(N3CC4(CC(COc5cccnc5C(F)(F)F)C4)C3)nc21 [Compound 131, 2-[1-(2,2-difluoroethyl)-1H-pyrazolo[3,4-b]pyrazin-6-yl]-6-({[2-(trifluoromethyl)pyridin-3-yl]oxy}methyl)-2-azaspiro[3.3]heptane] |
| 10 to 50 | FC(F)Cn1ncc2ncc(N3CC4(CC(COc5cc(C(F)(F)F)ccn5)C4)C3)nc21 [Compound 132, 2-[1-(2,2-difluoroethyl)-1H-pyrazolo[3,4-b]pyrazin-6-yl]-6-({[4-(trifluoromethyl)pyridin-2-yl]oxy}methyl)-2-azaspiro[3.3]heptane] |
| < 10 | FC(F)Cn1ncc2ncc(N3CC4(CC(COc5ccc(C(F)(F)F)nc5)C4)C3)nc21 [Compound 133, 2-[1-(2,2-difluoroethyl)-1H-pyrazolo[3,4-b]pyrazin-6-yl]-6-({[6-(trifluoromethyl)pyridin-3-yl]oxy}methyl)-2-azaspiro[3.3]heptane] |
| 50 to 100 | O=C1N(c2cccnc2C(F)(F)F)CCC12CCN(c1cnc3cnn(CC(F)F)c3n1)CC2 [Compound 135, 8-[1-(2,2-difluoroethyl)-1H-pyrazolo[3,4-b]pyrazin-6-yl]-2-[2-(trifluoromethyl)pyridin-3-yl]-2,8-diazaspiro[4.5]decan-1-one] |
| 10 to 50 | FC(F)(F)Cn1ncc2ncc(N3CCC4(CCN(c5cc(C(F)(F)F)ccn5)CC4)C3)nc21 [Compound 139, 2-[1-(2,2,2-trifluoroethyl)-1H-pyrazolo[3,4-b]pyrazin-6-yl]-8-[4-(trifluoromethyl)pyridin-2-yl]-2,8-diazaspiro[4.5]decane] |
| 10 to 50 | Cc1nn(CC(F)F)c2nc(N3CCC4(CCN(c5cc(C(F)(F)F)ccn5)CC4)C3)cnc12 [Compound 140, 2-[1-(2,2-difluoroethyl)-3-methyl-1H-pyrazolo[3,4-b]pyrazin-6-yl]-8-[4-(trifluoromethyl)pyridin-2-yl]-2,8-diazaspiro[4.5]decane] |
| 10 to 50 | FC(F)(F)c1ccnc(N2CCC3(CC2)CCN(c2cncc(-c4nncs4)n2)C3)c1 [Compound 141, 2-[6-(1,3,4-thiadiazol-2-yl)pyrazin-2-yl]-8-[4-(trifluoromethyl)pyridin-2-yl]-2,8-diazaspiro[4.5]decane] |
| < 10 | FC(F)Cn1ncc2ncc(N3CCC4(CC3)CCN(c3cccnc3C(F)(F)F)C4)nc21 [Compound 146, 8-[1-(2,2-difluoroethyl)-1H-pyrazolo[3,4-b]pyrazin-6-yl]-2-[2-(trifluoromethyl)pyridin-3-yl]-2,8-diazaspiro[4.5]decane] |
| < 10 | FC(F)Cn1ncc2ncc(N3CCC4(CCN(c5ccc(C(F)(F)F)nc5)C4)CC3)nc21 [Compound 147, 8-[1-(2,2-difluoroethyl)-1H-pyrazolo[3,4-b]pyrazin-6-yl]-2-[6-(trifluoromethyl)pyridin-3-yl]-2,8-diazaspiro[4.5]decane] |
| < 10 | FC(F)Cn1ncc2ncc(N3CCC4(CCN(c5ccc(C(F)(F)F)nc5)CC4)C3)nc21 [Compound 152, 2-[1-(2,2-difluoroethyl)-1H-pyrazolo[3,4-b]pyrazin-6-yl]-8-[6-(trifluoromethyl)pyridin-3-yl]-2,8-diazaspiro[4.5]decane] |
| < 10 | FC(F)Cn1ncc2ncc(N3CCC4(CCN(c5cncc(C(F)(F)F)c5)CC4)C3)nc21 [Compound 153, 2-[1-(2,2-difluoroethyl)-1H-pyrazolo[3,4-b]pyrazin-6-yl]-8-[5-(trifluoromethyl)pyridin-3-yl]-2,8-diazaspiro[4.5]decane] |
| < 10 | FC(F)Cn1ncc2ncc(N3CCC4(CCN(c5ccnc(C(F)(F)F)c5)C4)CC3)nc21 [Compound 154, 8-[1-(2,2-difluoroethyl)-1H-pyrazolo[3,4-b]pyrazin-6-yl]-2-[2-(trifluoromethyl)pyridin-4-yl]-2,8-diazaspiro[4.5]decane] |
